Test system: 945468-187-T-J2-PDC spheroids viability
Assay: Anticancer human tumor 945468-187-T-J2-PDC patient-derived rectal carcinoma cell line growth inhibition [PI3K]
Details: spheroids with HUVEC and MSC; for IC50: curve of first compound; for viability, T/C: stronger effect = lower value; active = viability on the fitted dose curve at most 10% of control; inactive = the rest
Outline: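 Targeted small molecules plus PI3K inhibitors, half-log dose series from Cmax (default top 10 microM), were applied to heterotypic spheroids of cancer cells with HUVEC and MSCs. Viability indicated growth inhibition.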
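Note: spheroids exposed to compounds for seven days before reading.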

CC1(C)CCC(Nc2ncc(C(F)(F)F)c(-c3c[nH]c4c(P(C)(C)=O)c(C#N)ccc34)n2)CN1 (centres undefined) + CC(Nc1ncnc2nc[nH]c12)c1cc2cccc(Cl)c2c(=O)n1-c1ccccc1
605 nM: IC50 (second compound 0.1 µM)
667 nM: IC50 (second compound 0.0316 µM)
548 nM: IC50 (second compound 10 µM)
736 nM: IC50 (second compound 0.316 µM)
inactive: viability, T/C (second compound 0.0316 µM, first compound 0.0316 µM) 91.5% | viability, T/C (second compound 0.0316 µM, first compound 0.1 µM) 95.5% | viability, T/C (second compound 0.0316 µM, first compound 0.316 µM) 77.8% | viability, T/C (second compound 0.0316 µM, first compound 1 µM) 35% | viability, T/C (second compound 0.0316 µM, first compound 3.16 µM) 30.3% | viability, T/C (second compound 0.0316 µM, first compound 10 µM) 29.3% | viability, T/C (second compound 0.1 µM, first compound 0.0316 µM) 95.6% | viability, T/C (second compound 0.1 µM, first compound 0.1 µM) 92.4% | viability, T/C (second compound 0.1 µM, first compound 0.316 µM) 66.3% | viability, T/C (second compound 0.1 µM, first compound 1 µM) 37.2% | viability, T/C (second compound 0.1 µM, first compound 3.16 µM) 33.9% | viability, T/C (second compound 0.1 µM, first compound 10 µM) 30.5% | viability, T/C (second compound 0.316 µM, first compound 0.0316 µM) 89.7% | viability, T/C (second compound 0.316 µM, first compound 0.1 µM) 86.9% | viability, T/C (second compound 0.316 µM, first compound 0.316 µM) 63.7% | viability, T/C (second compound 0.316 µM, first compound 1 µM) 44.8% | viability, T/C (second compound 0.316 µM, first compound 3.16 µM) 35.1% | viability, T/C (second compound 0.316 µM, first compound 10 µM) 28.1% | viability, T/C (second compound 1 µM, first compound 0.0316 µM) 104% | viability, T/C (second compound 1 µM, first compound 0.1 µM) 81.5% | viability, T/C (second compound 1 µM, first compound 0.316 µM) 56.9% | viability, T/C (second compound 1 µM, first compound 1 µM) 40.7% | viability, T/C (second compound 1 µM, first compound 3.16 µM) 46.3% | viability, T/C (second compound 1 µM, first compound 10 µM) 25.6% | viability, T/C (second compound 3.16 µM, first compound 0.0316 µM) 92.4% | viability, T/C (second compound 3.16 µM, first compound 0.1 µM) 82.4% | viability, T/C (second compound 3.16 µM, first compound 0.316 µM) 69.2% | viability, T/C (second compound 3.16 µM, first compound 1 µM) 38.5% | viability, T/C (second compound 3.16 µM, first compound 3.16 µM) 34.9% | viability, T/C (second compound 3.16 µM, first compound 10 µM) 32.4% | viability, T/C (second compound 10 µM, first compound 0.0316 µM) 125% | viability, T/C (second compound 10 µM, first compound 0.1 µM) 76.3% | viability, T/C (second compound 10 µM, first compound 0.316 µM) 60.4% | viability, T/C (second compound 10 µM, first compound 1 µM) 42.8% | viability, T/C (second compound 10 µM, first compound 3.16 µM) 39% | viability, T/C (second compound 10 µM, first compound 10 µM) 21.5%
685 nM: IC50 (second compound 1 µM)
665 nM: IC50 (second compound 3.16 µM)

Cn1cnc2c(F)c(Nc3ccc(Br)cc3Cl)c(C(=O)NOCCO)cc21 + COc1c(OCCCN2CCOCC2)ccc2c3n(c(=NC(=O)c4cnc(N)nc4)nc12)CCN3
2950 nM: IC50 (second compound 0.0316 µM)
657 nM: IC50 (second compound 0.1 µM)
inactive: viability, T/C (second compound 0.00316 µM, first compound 0.00949 µM) 99.9% | viability, T/C (second compound 0.00316 µM, first compound 0.03 µM) 129% | viability, T/C (second compound 0.00316 µM, first compound 0.0949 µM) 109% | viability, T/C (second compound 0.00316 µM, first compound 0.3 µM) 94.6% | viability, T/C (second compound 0.00316 µM, first compound 0.949 µM) 85.4% | viability, T/C (second compound 0.00316 µM, first compound 3 µM) 81.5% | viability, T/C (second compound 0.01 µM, first compound 0.00949 µM) 125% | viability, T/C (second compound 0.01 µM, first compound 0.03 µM) 146% | viability, T/C (second compound 0.01 µM, first compound 0.0949 µM) 109% | viability, T/C (second compound 0.01 µM, first compound 0.3 µM) 94.1% | viability, T/C (second compound 0.01 µM, first compound 0.949 µM) 92.5% | viability, T/C (second compound 0.01 µM, first compound 3 µM) 67.5% | viability, T/C (second compound 0.0316 µM, first compound 0.00949 µM) 95% | viability, T/C (second compound 0.0316 µM, first compound 0.03 µM) 111% | viability, T/C (second compound 0.0316 µM, first compound 0.0949 µM) 85.4% | viability, T/C (second compound 0.0316 µM, first compound 0.3 µM) 98.6% | viability, T/C (second compound 0.0316 µM, first compound 0.949 µM) 71.9% | viability, T/C (second compound 0.0316 µM, first compound 3 µM) 49.6% | viability, T/C (second compound 0.1 µM, first compound 0.00949 µM) 102% | viability, T/C (second compound 0.1 µM, first compound 0.03 µM) 94.9% | viability, T/C (second compound 0.1 µM, first compound 0.0949 µM) 88.8% | viability, T/C (second compound 0.1 µM, first compound 0.3 µM) 74.1% | viability, T/C (second compound 0.1 µM, first compound 0.949 µM) 38.3% | viability, T/C (second compound 0.1 µM, first compound 3 µM) 17.7% | viability, T/C (second compound 0.316 µM, first compound 0.00949 µM) 39.9% | viability, T/C (second compound 0.316 µM, first compound 0.03 µM) 40% | viability, T/C (second compound 0.316 µM, first compound 0.0949 µM) 34.1% | viability, T/C (second compound 0.316 µM, first compound 0.3 µM) 21.9% | viability, T/C (second compound 0.316 µM, first compound 0.949 µM) 16.3% | viability, T/C (second compound 1 µM, first compound 0.00949 µM) 20% | viability, T/C (second compound 1 µM, first compound 0.03 µM) 18.6% | viability, T/C (second compound 1 µM, first compound 0.0949 µM) 18.1% | viability, T/C (second compound 1 µM, first compound 0.3 µM) 11.3%
< 9.49 nM: IC50 (second compound 0.316 µM) | IC50 (second compound 1 µM)
> 3000 nM: IC50 (second compound 0.00316 µM) | IC50 (second compound 0.01 µM)
active: viability, T/C (second compound 0.316 µM, first compound 3 µM) 6.67% | viability, T/C (second compound 1 µM, first compound 0.949 µM) 10.4% | viability, T/C (second compound 1 µM, first compound 3 µM) 5.87%

Source: PubChem BioAssay AID1963972 (Molecular Pharmacology Branch, DTP, NCI, 2024)
